# “Also recorded” adds a separate entry of the source. [np] = N3'→P5' phosphoramidate
# Columns and labels:
# [1] = test system: BV173 cells; assay: Leukemic cell proliferation, BV173 cells (B2A2 BCR/ABL fusion junction); settings: for shape of inhibition curves at later time points after partial release of inhibition: FIGS. 14 and 18; for inhibition of BV173 leukemia cell growth relative to phosphoramidate oligonucleotide 6: comparable concentrations
# [2] = test system: complementary RNA strand; assay: Thermal dissociation of duplexes with complementary RNA strand; format: binding
# Method: (§1) The hybridization properties of the phosphoramidate analogs were evaluated relative to complementary DNA or RNA strands having standard phosphodiester intersubunit linkages. The thermal stability data for duplexes generated from phosphoramidate analogs and phosphodiester oligomers are summarized in FIG. 3 (Example 1).
# (§2) The same trend is true for the mixed-base undecanucleotide 6 (FIG. 3), where the Tm 's of duplexes with complementary DNA and RNA strands were 49.2° C. and 72.4° C., respectively, (FIG. 3, experiments 13, 14).
# Thermal dissociation curves were obtained using a Carry IE spectrophotometer (Varian, Palo Alto, Calif.) that was equipped with a temperature controller (Varian). The reaction solutions contained equivalent concentrations of oligomer and complement (approximately 6 μM in oligomer strand) in 15 mM phosphate buffer at pH 7.05, with NaCl added to give a total Na+ concentration of 100 mM.
# (§3) The molar extinction coefficients used for oligo(dT), poly(dA) and poly(A) were 8.2, 8.4, and 10.2 A260 ×10^3, respectively. An extinction coefficient of 109 A260 Units/μM was used for the mixed-based oligomers--the extinction coefficient was calculated from the table compiled by P. N. Borer (1975).
# (§4) Reaction solutions were equilibrated at 0° C. and the absorbance at 260 nm was followed as the temperature was increased in increments of 3° C. per 5 minutes. The fraction of an oligomer in the bound state, α,at a given temperature was determined by use of upper and lower base lines as described by Abergo, et al. (1981). Tm values are defined as the temperature at which α=0.5. Plots of Ink (Marky, et al., 1987) versus 1/T were linear for these compounds.
# In the table, Tm is the temperature at the midpoint of the melting curve; np is the abbreviation for the 3'--NHP(O)(O^-)0-5' phosphoramidate link.
# The concentrations of oligonucleotides were typically at 5 μM oligomer strands. Buffer A (10 mM Tris HCl, 150 mM NaCl, pH 7.02) was used for duplex thermal stability studies.
# [3] = test system: dA10:dT10 duplex region of the hairpin DNA target d(A10 C4 T10); assay: Triplex melting with hairpin DNA target d(A10 C4 T10); format: binding
# Method: Melting curves were obtained for triplexes formed by the decathymidilic phosphoramidate […] and the dA10 :dT10 duplex region of the hairpin DNA target d(A10 C4 T10) (FIG. 3, experiment 7).
# (§5) Triplex thermal stabilities were evaluated essentially as described above for duplexes.
# FIGS. 7A to 7D present exemplary triplex melting curves. FIGS. 7A and 7C present normalized absorbance at 260 nm plotted against temperature. FIGS. 7B and 7D present normalized absorbance at 284 nm plotted against temperature. In the figures: the triplexes formed by double stranded DNA and phosphoramidate Oligonucleotide 3 correspond to the black circle line; triplexes formed with phosphodiester Oligonucleotide 1 correspond to open squares line).
# The data correspond to FIG. 3, experiment 7 where curves (A) and (C) were thermal stability studies performed using buffers A and B, respectively, with hyperchromicity monitored at 260 nm. Curves (B) and (D) are (A) and (C) respectively, but where hyperchromicity was monitored at 284 nm.
# [4] = test system: 26-mer hairpin target (SEQ ID NO:22); assay: Gel band mobility shift assay, 26-mer hairpin target; format: binding; settings: native conditions, essentially as for Oligonucleotide 3
# Text: The conditions of the gel band mobility shift assay were essentially as described above.
# [5] = test system: single mismatch RNA target; assay: Thermal dissociation of duplexes with single mismatch RNA target; format: binding; settings: mismatch discrimination
# Method: Hybridization of the phosphoramidate oligonucleotides with complementary nucleic acids is sequence specific and determined by the proper Watson-Crick base pairing.
# Reaction solutions were equilibrated at 0° C. and the absorbance at 260 nm was followed as the temperature was increased in increments of 3° C. per 5 minutes. […] Tm values are defined as the temperature at which α=0.5.
# [6] = test system: HL60 cells; assay: Leukemic cell proliferation / cytotoxicity, HL60 cells (no BCR/ABL breakpoint); format: cell-based
# Method: (§6) N3'→P5' phosphoramidate linkage containing anti-sense oligonucleotides were synthesized which were complementary to the BCR/ABL fusion junction (B2A2) in leukemic cell line BV173. The following assay measures leukemic cell proliferation and is performed essentially as described by Anfossi, et al. (1989).
# (§7) Briefly, FIG. 10 illustrates the effect of BCR-ABL oligomers on leukemic cell proliferation of BV173 cells carrying the B2A2-type break points. BV173 is a leukemic cell line with the B2A2 BCR/ABL fusion junction (Pegoraro, et al., 1983). HL60 is a promyelocytic leukemic cell line with a normal c-abl locus (Collins, et al., 1977). K562 is a leukemic cell line with the B3A2 BCR/ABL fusion junction (Seelig, et al., 1993).
# (§8) Cells (5×10^4) were placed in 0.2 ml of liquid suspension culture (Iscove's modified Dulbecco's modified medium with 2% human AB serum--Life Technologies, Gaithersburg, Md.).
# (§9) The oligonucleotides were administered to the cultures at 24 hour intervals for three days (days 0, 1 and 2) to achieve the incremental concentrations shown in the legends of FIGS. 10-19 (all concentrations in μg/mL), for example, FIG. 10--40/20/20; 20/10/10; 10/5/5; and 5/2.5/2.5. Note that, for example, 40/20/20 reflects a final total concentration of 80 μg/ml in the cell culture medium after the last oligonucleotide addition. Cell counts were performed by standard methods.
# [7] = test system: complementary DNA strand; assay: Thermal dissociation of duplexes with complementary DNA strand; format: binding
# Method: as §1, §2
# Thermal dissociation curves were obtained using a Carry IE spectrophotometer (Varian, Palo Alto, Calif.) that was equipped with a temperature controller (Varian). […]
# as §3
# as §4, with “Tm values are defined as the temperature at which α=0.5. Plots of Ink (Marky, et al., 1987) versus 1/T were linear for these compounds.” left out
# [8] = test system: K562 cells; assay: Leukemic cell proliferation / cytotoxicity, K562 cells (B3A2 BCR/ABL fusion junction); format: cell-based; settings: FIG. 15
# Method: as §6, §7, §8, §9
# [9] = Thermal dissociation of oligonucleotide hairpin duplexes; format: physicochemical
# Method: Experiments were also performed to evaluate the stability of duplexes formed by oligonucleotides containing phosphoramidate linkages in both complementary strands.
# The stability of duplexes formed by oligonucleotides containing phosphoramidate linkages in both complementary strands was evaluated essentially as described above.
# All the molecules in FIG. 6 were constructed using 2'-deoxyribonucleotides.
# as §5
# [10] = test system: 24-mer hairpin target d(A10 C4 T10); assay: Gel band mobility shift assay, 24-mer hairpin target; format: binding; settings: native conditions, 10 mM MgCl2, 80 mM Tris-borate, pH 8.2, 10° C.
# Method: Triplex structures were further evaluated using gel band mobility shift assays.
# Gel band mobility shift assay conditions were as follows: 20% acrylamide, 5% bisacrylamide in 10 mM MgCl2, 80 mM Tris-borate buffer, pH 8.2, 10° C. Gels were typically run under native (non-denaturing) conditions. In the figure the lanes are as follows: 1--10-mer phosphodiester Oligonucleotide 1; 2--10-mer phosphoramidate Oligonucleotide 3; 3--24-mer hairpin target d(A10 C4 T10) (FIG. 3, experiment 7).
# The gel was stained with STAINS-ALL™ (Kodak, Rochester N.Y.) and imaged on a Molecular Dynamics (Sunnyvale, Calif.) densitometer.
# [11] = test system: control cell lines; assay: Cytotoxicity of antisense oligonucleotides in leukemia cell culture; format: cell-based
# Text: FIGS. 10 through 19 show the results of anti-sense oligonucleotides, having either phosphoramidate (N3'→P5') (FIGS. 10-15) or phosphorothioate (FIGS. 16-19) intersubunit linkages, on leukemia cell proliferation for different BCR-ABL leukemia cell lines and control cell lines.
# as §6, §8, §9
# [12] = versus Oligodeoxyribonucleotide 4
substance,measurement,setting,value
"16mer phosphorothioate oligonucleotide (SEQ ID NO:27): 16mer phosphorothioate complementary to the B3A2 BCR/ABL fusion junction; 2 base pair mismatch to B2A2 (antisense GAGTTCAAAAGCCCTT; all phosphorothioate, sugars by position and methylation of C not given here)",tolerance by BV173 cells,[1]; all concentrations (FIG. 17),tolerated by the cells
"Oligonucleotide 6: fully modified N3'→P5' phosphoramidate 11-mer complementary to the BCR-ABL junction B2A2 (antisense CTTCTTCCTTA; all [np], sugars by position and methylation of C not given here)",Tm of duplex with complementary RNA strand,[2]; buffer A,72.4 °C
same,"Tm increase relative to parent phosphodiester Oligodeoxyribonucleotide 4, RNA strand",[2]; [12],22.9 °C
same,"duplex stability increase relative to homologous RNA oligomer 5, same RNA target",[2]; versus RNA oligomer 5,18.0 °C
same,Tm of triplex,[3]; close to physiological conditions (buffer A),32 °C
same,Tm of triplex,[3]; magnesium-containing buffer (buffer B),42.2 °C
same,triplex formation in gel band mobility shift assay,[4],stable triplex formation; also recorded: confirmed by gel band mobility shift assay
same,ΔTm with single mismatch RNA target versus fully complementary,[5],-12.2 °C
same,cytotoxicity to HL60 cells,[6],no apparent cytotoxicity; also recorded: negligible toxicity
same,tolerance by HL60 cells,[6]; all concentrations (FIG. 11),well tolerated by the cells
same,Tm of duplex with complementary DNA strand,[7]; buffer A,49.2 °C
same,"Tm increase relative to parent phosphodiester Oligodeoxyribonucleotide 4, DNA strand",[7]; [12],11.7 °C
same,shape of inhibition curves at later time points after partial release of inhibition,[1],downward inflection at later time points
same,inhibition of BV173 leukemia cell proliferation,"[1]; all concentrations / FIG. 10 down to 5/2.5/2.5 μg/ml on days 0, 1, 2",extremely effective at inhibiting the growth of the leukemia cells
same,inhibition of BV173 leukemia cell proliferation,[1]; lowest concentrations 0.3125/0.15625/0.15625 μg/mL (FIG. 12),extremely effective at inhibiting leukemia cell proliferation
same,effect on proliferation of K562 cells / cytotoxicity,[8],essentially no effect on the proliferation
d(A10 C4 T10) [hairpin duplex],Tm of the hairpin duplex,[9]; buffer A,55.7 °C
same,Tm of the hairpin duplex,[9]; buffer B (10 mM MgCl2),61.5 °C
"phosphodiester decathymidilic acid [Oligonucleotide 1, reference compound]",triplex formation judged by melting curves,"[3]; buffers A and B, 260 and 284 nm",no corresponding triplex was formed; also recorded: did not form triplexes
same,triplex formation in gel band mobility shift assay,[10],no corresponding triplex was formed; also recorded: fails to form a triplex
"phosphorothioate 16-mer: oligonucleotide 16-mer having fully modified phosphorothioate intersubunit linkages, containing the SEQ ID NO:6 sequence (antisense AAGGGCTTCTTCCTTA; all phosphorothioate, sugars by position and methylation of C not given here)",cytotoxicity,[11],absence of cytotoxicity
same,shape of inhibition curves at later time points after partial release of inhibition,[1],steep upward inflection at later time points
same,concentrations of release of inhibition relative to phosphoramidate oligonucleotide 6,[1]; FIGS. 18 and 19,much lower concentrations
same,inhibition of BV173 leukemia cell growth relative to phosphoramidate oligonucleotide 6,[1],not effective at inhibiting BV173 leukemia cell proliferation
same,inhibition of BV173 leukemia cell growth relative to phosphoramidate oligonucleotide 6,[1]; listed as 16-mer (SEQ ID NO:26),not as effective as oligonucleotide 6

# — patent publication US5965720A, “Oligonucleotide N3'→P5' phosphoramidates” (Lynx Therapeutics, Inc., priority 1997, dated 1999)
